The record followed here is patent US20250215029A1 (Recludix Pharma, Inc., priority 2022, published 2025).

One experiment deals with T1, pY705-STAT3 in PBMC (Homo sapiens, UniProt P40763).
T1 construct: Cryopreserved Peripheral Blood Mononuclear Cells (PBMC) are from AllCells; host or cells: cryopreserved PBMC
Kind of experiment: MSD-pSTAT-PBMC Assay (pSTAT3, IL-6 stimulated). The format is cell-based. The note with it: PBMC, compound 3 hrs, then 10 ng/mL IL-6 for 10 min; Table 1114; read-out: pSTAT3. Put shortly: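 MSD electrochemiluminescence read-out: total STAT captured, probed with anti-pY641-STAT6 or anti-pY705-STAT3. Human PBMC, 3 h compound pretreatment, 10 min stimulation (IL-4 1 ng/mL or IL-6 10 ng/mL). Unstimulated signal subtracted, DMSO-normalized, variable-slope IC50.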

A further experiment addresses T2, pY641-STAT6 in PBMC (Homo sapiens, UniProt P42226).
T2 construct: Cryopreserved Peripheral Blood Mononuclear Cells (PBMC) are from AllCells; host or cells: cryopreserved PBMC
T2 sequence (P42226 1-847): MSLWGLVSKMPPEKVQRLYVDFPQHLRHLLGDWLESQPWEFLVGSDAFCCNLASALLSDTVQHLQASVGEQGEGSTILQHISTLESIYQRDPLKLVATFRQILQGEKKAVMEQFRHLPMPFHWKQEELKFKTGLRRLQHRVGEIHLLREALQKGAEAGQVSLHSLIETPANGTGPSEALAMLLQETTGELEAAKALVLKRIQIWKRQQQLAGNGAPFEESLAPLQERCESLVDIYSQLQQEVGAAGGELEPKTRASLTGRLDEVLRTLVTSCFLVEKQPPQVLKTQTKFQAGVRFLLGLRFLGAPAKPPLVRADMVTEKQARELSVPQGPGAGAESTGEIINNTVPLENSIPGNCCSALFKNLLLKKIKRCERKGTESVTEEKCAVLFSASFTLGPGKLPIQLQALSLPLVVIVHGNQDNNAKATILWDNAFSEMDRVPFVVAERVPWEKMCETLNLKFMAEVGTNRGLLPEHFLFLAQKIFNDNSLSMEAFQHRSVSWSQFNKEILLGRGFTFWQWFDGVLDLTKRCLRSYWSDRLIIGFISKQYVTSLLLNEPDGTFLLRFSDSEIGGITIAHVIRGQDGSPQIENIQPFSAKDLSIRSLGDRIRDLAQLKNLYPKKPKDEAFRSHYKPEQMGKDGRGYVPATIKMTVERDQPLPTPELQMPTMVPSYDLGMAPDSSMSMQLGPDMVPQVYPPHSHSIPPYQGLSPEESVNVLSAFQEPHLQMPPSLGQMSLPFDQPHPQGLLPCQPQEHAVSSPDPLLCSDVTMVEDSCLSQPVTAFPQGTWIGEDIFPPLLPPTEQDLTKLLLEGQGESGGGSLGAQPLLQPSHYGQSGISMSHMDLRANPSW
Kind of experiment: MSD-pSTAT-PBMC Assay (pSTAT6, IL-4 stimulated). The format is cell-based. Particulars: compound 3 hrs, then 1 ng/mL IL-4 for 10 min, Table 1114. Put shortly: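 PBMC (human, cryopreserved, overnight recovery) + cpd 3 hrs → IL-6 10 ng/mL (STAT3) or IL-4 1 ng/mL (STAT6) ×10 min → lysis with protease/phosphatase inhibitors → MSD capture/phospho detection. IC50, variable slope, DMSO-normalized.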

Molecules are shown by their SMILES. Read-outs that look alike come from different tables or passages of the source.

T1 sequence (P40763 whole entry): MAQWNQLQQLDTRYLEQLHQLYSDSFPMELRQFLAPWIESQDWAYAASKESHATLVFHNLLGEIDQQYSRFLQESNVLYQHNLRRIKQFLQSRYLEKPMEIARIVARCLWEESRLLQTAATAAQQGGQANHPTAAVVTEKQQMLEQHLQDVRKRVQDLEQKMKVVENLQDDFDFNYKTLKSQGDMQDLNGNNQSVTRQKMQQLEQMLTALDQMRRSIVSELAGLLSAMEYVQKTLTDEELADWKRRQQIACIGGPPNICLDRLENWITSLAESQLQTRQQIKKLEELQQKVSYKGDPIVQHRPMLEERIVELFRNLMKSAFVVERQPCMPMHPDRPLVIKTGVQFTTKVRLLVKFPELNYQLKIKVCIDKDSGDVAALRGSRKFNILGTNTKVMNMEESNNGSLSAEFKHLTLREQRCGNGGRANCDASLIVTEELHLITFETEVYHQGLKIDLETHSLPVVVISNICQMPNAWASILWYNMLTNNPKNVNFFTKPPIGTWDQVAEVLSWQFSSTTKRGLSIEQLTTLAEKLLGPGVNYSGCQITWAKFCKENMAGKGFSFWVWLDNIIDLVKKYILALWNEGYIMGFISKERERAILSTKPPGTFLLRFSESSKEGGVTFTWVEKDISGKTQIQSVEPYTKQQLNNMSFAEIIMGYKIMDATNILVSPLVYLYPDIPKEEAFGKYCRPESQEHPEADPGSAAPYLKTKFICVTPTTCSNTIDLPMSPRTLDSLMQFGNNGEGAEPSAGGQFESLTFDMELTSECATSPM

On to `CC(C)(C)C(=O)SCCOP(=O)(OCCSC(=O)C(C)(C)C)C(F)(F)c1ccc2sc(C(=O)N[C@H]3CCCC[C@H]4CC[C@@H](C(=O)N5C[C@@H](C#N)[C@H](c6ccccc6)C5)N4C3=O)cc2c1` (single isomer, unassigned) [Compound 127, S,S′-(((((2-(((3S,6S,10aS)-3-((3S,4R or 3R,4S)-3-cyano-4-phenylpyrrolidine-1-carbonyl)-5-oxodecahydro-pyrrolo[1,2-a]azocin-6-yl)carbamoyl)benzo[b]thiophen-5-yl)difluoromethyl)phosphoryl)bis(oxy))bis(ethane-2,1-diyl))bis(2,2-dimethylpropane-thioate], for which the IC50 is 1000 to 3000 nM at pY705-STAT3 in PBMC and 100 to 1000 nM on pY641-STAT6 in PBMC (PBMC, read-out: pSTAT6).
Consider `CCCC(=O)SCCOP(=O)(Oc1ccccc1)C(F)(F)c1ccc2sc(C(=O)N[C@H]3CCCC[C@H]4CC[C@@H](C(=O)N5C[C@H](c6ccccc6)[C@@H](C#N)C5)N4C3=O)cc2c1` (single isomer, unassigned) [Compound 128, S-(2-((((2-(((3S,6S,10aS)-3-((3R,4S or 3S,4R)-3-cyano-4-phenylpyrrolidine-1-carbonyl)-5-oxodecahydro-pyrrolo[1,2-a]azocin-6-yl)carbamoyl)benzo[b]thiophen-5-yl)difluoromethyl) (phenoxy)phosphoryl)oxy)ethyl) butanethioate], for which the IC50 at pY705-STAT3 in PBMC was over 3000 nM; against pY641-STAT6 in PBMC (pSTAT6, PBMC), 100 to 1000 nM.
As for `CC(C)(C)C(=O)SCCOP(=O)(OCCSC(=O)C(C)(C)C)C(F)(F)c1ccc2sc(C(=O)N[C@H]3C[C@@H](O)CC[C@H]4CC[C@@H](C(=O)N5C[C@@H](C#N)[C@H](c6ccccc6)C5)N4C3=O)cc2c1` (single isomer, unassigned) [Compound 129, S,S′-(((((2-(((3S,6S,8S,10aR)-3-((3S,4R or 3R,4S)-3-cyano-4-phenylpyrrolidine-1-carbonyl)-8-hydroxy-5-oxodecahydro-pyrrolo[1,2-a]azocin-6-yl)carbamoyl)benzo [b]thiophen-5-yl)difluoromethyl)phosphoryl)bis(oxy))bis(ethane-2,1-diyl)) bis(2,2-dimethylpropane-thioate], the IC50 at pY705-STAT3 in PBMC was over 3000 nM; on pY641-STAT6 in PBMC (PBMC, read-out: pSTAT6) it was 100 to 1000 nM.
Turning to `CC(C)(C)C(=O)SCCOP(=O)(Oc1ccccc1)C(F)(F)c1ccc2sc(C(=O)N[C@H]3CCCC[C@H]4CC[C@@H](C(=O)N5C[C@H](c6ccccc6)[C@@H](C#N)C5)N4C3=O)cc2c1` (single isomer, unassigned) [Compound 133, S-(2-((((2-(((3S,6S,10aS)-3-((3S,4R or 3R,4S)-3-cyano-4-phenylpyrrolidine-1-carbonyl)-5-oxodecahydro-pyrrolo[1,2-a]azocin-6-yl)carbamoyl)benzo[b]thiophen-5-yl)difluoromethyl) (phenoxy)phosphoryl)oxy)ethyl)-2,2-dimethylpropane-thioate], the IC50 at pY705-STAT3 in PBMC was over 3000 nM; against pY641-STAT6 in PBMC (pSTAT6, PBMC) it was 100 to 1000 nM.
On to `CC(C)(C)C(=O)SCCOP(=O)(Oc1ccc(C#N)cc1)C(F)(F)c1ccc2sc(C(=O)N[C@H]3CCCC[C@H]4CC[C@@H](C(=O)N5C[C@@H](C#N)[C@H](c6ccccc6)C5)N4C3=O)cc2c1` (single isomer, unassigned) [Compound 134, S-(2-((((2-(((3S,6S,10aS)-3-((3S,4R or 3R,4S)-3-cyano-4-phenylpyrrolidine-1-carbonyl)-5-oxodecahydro-pyrrolo[1,2-a]azocin-6-yl)carbamoyl)benzo[b]thiophen-5-yl)difluoromethyl)(4-cyanophenoxy)phosphoryl)oxy)ethyl)-2,2-dimethylpropane-thioate], for which the IC50 on pY705-STAT3 in PBMC was over 3000 nM; against pY641-STAT6 in PBMC (pSTAT6, PBMC), 100 to 1000 nM.
`CC(C)CC(=O)SCCOP(=O)(OCCSC(=O)CC(C)C)C(F)(F)c1ccc2sc(C(=O)N[C@H]3C[C@@H](O)CC[C@H]4CC[C@@H](C(=O)N5C[C@@H](C#N)[C@H](c6ccccc6)C5)N4C3=O)cc2c1` (single isomer, unassigned) [Compound 135, S,S′-(((((2-(((3S,6S,8S,10aR)-3-((3S,4R or 3R,4S)-3-cyano-4-phenylpyrrolidine-1-carbonyl)-8-hydroxy-5-oxodecahydro-pyrrolo[1,2-a]azocin-6-yl)carbamoyl)benzo[b]thiophen-5-yl)difluoromethyl)phosphoryl)bis(oxy))bis (ethane-2,1-diyl)) bis(3-methylbutane-thioate)]: the IC50 is over 3000 nM on pY705-STAT3 in PBMC and 100 to 1000 nM on pY641-STAT6 in PBMC (PBMC, read-out: pSTAT6).
In the case of `CC(C)(C)C(=O)SCCOP(=O)(Oc1cccc(C#N)c1)C(F)(F)c1ccc2sc(C(=O)N[C@H]3CCCC[C@H]4CC[C@@H](C(=O)N5C[C@@H](C#N)[C@H](c6ccccc6)C5)N4C3=O)cc2c1` (single isomer, unassigned) [Compound 137, S-(2-((((2-(((3S,6S,10aS)-3-((3S,4R or 3R,4S)-3-cyano-4-phenylpyrrolidine-1-carbonyl)-5-oxodecahydro-pyrrolo[1,2-a]azocin-6-yl)carbamoyl)benzo[b]thiophen-5-yl)difluoromethyl)(3-cyanophenoxy)phosphoryl)oxy)ethyl)-2,2-dimethylpropane-thioate], the IC50 on pY705-STAT3 in PBMC was over 3000 nM; against pY641-STAT6 in PBMC (pSTAT6, PBMC), 100 to 1000 nM.
On the same counts, the results for `CCCC(=O)SCCOP(=O)(Oc1cccc(C#N)c1)C(F)(F)c1ccc2sc(C(=O)N[C@H]3CCCC[C@H]4CC[C@@H](C(=O)N5C[C@@H](C#N)[C@H](c6ccccc6)C5)N4C3=O)cc2c1` (single isomer, unassigned) [Compound 138, S-(2-((((2-(((3S,6S,10aS)-3-((3S,4R or 3R,4S)-3-cyano-4-phenylpyrrolidine-1-carbonyl)-5-oxodecahydro-pyrrolo[1,2-a]azocin-6-yl)carbamoyl)benzo[b]thiophen-5-yl)difluoromethyl) (3-cyanophenoxy)phosphoryl)oxy)ethyl)butane-thioate] are over 3000 nM and 100 to 1000 nM.
For the compound `CCCC(=O)SCCOP(=O)(Oc1cccnc1)C(F)(F)c1ccc2sc(C(=O)N[C@H]3CCCC[C@H]4CC[C@@H](C(=O)N5C[C@@H](C#N)[C@H](c6ccccc6)C5)N4C3=O)cc2c1` (single isomer, unassigned) [Compound 139, S-(2-((((2-(((3S,6S,10aS)-3-((3S,4R or 3R,4S)-3-cyano-4-phenylpyrrolidine-1-carbonyl)-5-oxodecahydro-pyrrolo[1,2-a]azocin-6-yl)carbamoyl)benzo[b]thiophen-5-yl)difluoromethyl) (pyridin-3-yloxy)phosphoryl)oxy)ethyl) butanethioate], the IC50 on pY705-STAT3 in PBMC is 100 to 1000 nM; on pY641-STAT6 in PBMC (pSTAT6, PBMC), under 100 nM.
With `CC(C)(C)C(=O)OCOP(=O)(Cc1ccc2sc(C(=O)N[C@H]3CCCC[C@H]4CC[C@@H](C(=O)N5C[C@@H](C#N)[C@H](c6ccccc6)C5)N4C3=O)cc2c1)OCOC(=O)C(C)(C)C` (single isomer, unassigned) [Compound 144, ((((2-(((3S,6S,10aS)-3-((3S,4R or 3R,4S)-3-cyano-4-phenylpyrrolidine-1-carbonyl)-5-oxodecahydro-pyrrolo[1,2-a]azocin-6-yl)carbamoyl)benzo[b]thiophen-5-yl)methyl)phosphoryl)bis (oxy))bis (methylene) bis(2,2-dimethylpropanaote)], the IC50 at pY705-STAT3 in PBMC is 1000 to 3000 nM; at pY641-STAT6 in PBMC (PBMC, read-out: pSTAT6) it was 100 to 1000 nM.
